System: PD-L1 in C33A cells
Assay: Western blotting of PD-L1 level in C33A cells
Type: cell-based, human
Conditions: 4 h treatment, mean of 3 independent experiments, read-out: IC50 of PD-L1 decrease
Method: C33A and HeLa cells were plated in 6-well plates and treated with the stapled peptide at the indicated concentrations for the specified time, followed by lysis in RIPA buffer containing protease inhibitor. Protein samples were prepared using a BCA Protein Assay Kit (Beyotime). A total of 50 µg of protein were added per lane, separated by 10% SDS-PAGE, and subsequently transferred onto polyvinylidene fluoride (PVDF) membrane. The membrane was blocked with 5% skimmed milk for 2 h at room temperature. Primary antibodies including anti-PD-L1 (Abcam, ab213524) and anti-GAPDH (Abcam, ab9485) antibodies were diluted in primary antibody dilution buffer (Biosharp) and incubated with PVDF membrane at 4°C overnight. Next, the membrane was incubated with goat anti-mouse/anti-rabbit secondary antibodies (Proteintech, SA00001-1, SA00001-2) at room temperature for 1 h. After washing with TBST thrice for 5 min each, the proteins were detected using enhanced chemiluminescence (ECL) reagents (Vazyme) and a ChemiDoc XRS imaging system (Bio-Rad Laboratories).

An IC50 of 7.79 µM was found for `Cc1c(COc2ccc(CN3CCCCC3C(=O)O)cc2Br)cccc1-c1ccccc1` (stereo not shown) [BMS-8] in this work.

Source: paper PMC10262918, “Stapled peptide PROTAC induced significantly greater anti-PD-L1 effects than inhibitor in human cervical cancer cells” (Frontiers in Immunology, 2023)
